What all share (assay): relative viability (nuclei count vs DMSO), 5 days (fraction); higher = more cells survive
Compound in the test “Wnt-C59 + Pemetrexed”: CC1=NC=CC(=C1)C2=CC=C(C=C2)CC(=O)NC3=CC=C(C=C3)C4=CN=CC=C4 [Wnt-C59] + Nc1nc2[nH]cc(CCc3ccc(C(=O)N[C@@H](CCC(=O)O)C(=O)O)cc3)c2c(=O)[nH]1 [Pemetrexed] (partner 0.2 µM)
Put shortly:
(§1)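 Relative viability is defined as nuclei in treated wells over nuclei in vehicle wells. Duplicate plates were run and medians reported. Lung cancer cell lines in 1536-well plates were dosed by pin tool one day after seeding, with one drug or with a fixed anchor-drug dose plus five library-drug doses (not always all listed) in √10 steps, and nuclei were counted after 5 days.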

Compound in the test “Lapatinib + Bortezomib”: CS(=O)(=O)CCNCc1ccc(-c2ccc3ncnc(Nc4ccc(OCc5cccc(F)c5)c(Cl)c4)c3c2)o1 [Lapatinib] + CC(C)C[C@H](NC(=O)[C@H](Cc1ccccc1)NC(=O)c1cnccn1)B(O)O [Bortezomib] (partner 0.002 µM)
Put shortly:
as §1

Compound in the test “Lapatinib + Foretinib”: CS(=O)(=O)CCNCc1ccc(-c2ccc3ncnc(Nc4ccc(OCc5cccc(F)c5)c(Cl)c4)c3c2)o1 [Lapatinib] + COc1cc2c(Oc3ccc(NC(=O)C4(C(=O)Nc5ccc(F)cc5)CC4)cc3F)ccnc2cc1OCCCN1CCOCC1 [Foretinib] (partner 0.25 µM)
Put shortly:
as §1

Compound in the test “Lapatinib + Crizotinib”: CS(=O)(=O)CCNCc1ccc(-c2ccc3ncnc(Nc4ccc(OCc5cccc(F)c5)c(Cl)c4)c3c2)o1 [Lapatinib] + C[C@@H](Oc1cc(-c2cnn(C3CCNCC3)c2)cnc1N)c1c(Cl)ccc(F)c1Cl [Crizotinib] (partner 1 µM)
The essentials: as §1

With UMC-11, the relative viability in the test with Wnt-C59 + Pemetrexed (first compound 0.001 µM) is 0.756; with Wnt-C59 + Pemetrexed (first compound 0.01 µM) it was 0.821; with Wnt-C59 + Pemetrexed (first compound 0.03162 µM), 0.874; with Wnt-C59 + Pemetrexed (first compound 0.1 µM) it was 0.76; with Lapatinib + Bortezomib (first compound 0.02 µM), 0.838; with Lapatinib + Bortezomib (first compound 0.06325 µM) it was 0.705. The relative viability with Lapatinib + Bortezomib (first compound 0.2 µM) was found to be 0.852; with Lapatinib + Bortezomib (first compound 0.6325 µM) it was 0.798; with Lapatinib + Bortezomib (first compound 2 µM) it was 0.665; with Lapatinib + Foretinib (first compound 0.02 µM) it was 0.951; with Lapatinib + Foretinib (first compound 0.06325 µM), 1.01; with Lapatinib + Foretinib (first compound 0.2 µM), 0.961. Further, the relative viability in the test with Lapatinib + Foretinib (first compound 0.6325 µM) turned out to be 0.978; with Lapatinib + Foretinib (first compound 2 µM) it was 0.933; with Lapatinib + Crizotinib (first compound 0.02 µM), 0.541; with Lapatinib + Crizotinib (first compound 0.06325 µM), 0.508; with Lapatinib + Crizotinib (first compound 0.2 µM), 0.672; with Lapatinib + Crizotinib (first compound 0.6325 µM), 0.578. For the same cell line, the relative viability with Lapatinib + Crizotinib (first compound 2 µM) amounted to 0.659.

The values above are taken from the supplement of paper PMC10307832.
